In ChEMBL document CHEMBL6087464, “Design, Synthesis, and Biological Evaluation of 3,4-Dihydroisoquinolin-1(2H)-one Derivatives as Protein Arginine Methyltransferase 5 Inhibitors for the Treatment of Non-Hodgkin's Lymphoma” (J Med Chem, 2025):
Values belong to the compound of their own block, whether it stands above or below them.

Experiments:
[1] = Half-life in Sprague-Dawley rat at 10 mg/kg, po by LC-MS/MS analysis; assay type: ADME, organism-based; details: Sprague-Dawley, in vivo
[2] = Cmax in Sprague-Dawley rat at 10 mg/kg, po by LC-MS/MS analysis; assay type: ADME, organism-based; details: Sprague-Dawley, in vivo, read-out: Cmax
[3] = AUC (0 to t) in Sprague-Dawley rat at 10 mg/kg, po by LC-MS/MS analysis; assay type: ADME, organism-based; details: Sprague-Dawley, in vivo
[4] = Half-life in Sprague-Dawley rat at 2 mg/kg, iv by LC-MS/MS analysis; assay type: ADME, organism-based; details: in vivo
[5] = MRT (0 to t) in Sprague-Dawley rat at 2 mg/kg, iv by LC-MS/MS analysis; assay type: ADME, organism-based; details: in vivo
[6] = biological target: Protein arginine N-methyltransferase 3 (Homo sapiens, UniProt O60678); experiment: Inhibition of PRMT3 (unknown origin)
NCI-H1299 = experiment: Antiproliferative activity against human NCI-H1299 cells measured after 4 to 5 days by CCK-8 assay; assay type: functional, cell-based
NCI-H1975 = experiment: Antiproliferative activity against human NCI-H1975 cells measured after 4 to 5 days by CCK-8 assay; assay type: functional, cell-based
Z-138 [7] = experiment: Antiproliferative activity against PRMT5 knockout human Z138 cells measured after 7 days by CellTiter-Glo luminescence cell viability assay; assay type: functional, cell-based; details: Z-138, 168 h
Z-138 [8] = experiment: Induction of apoptosis in human Z138 cells assessed as viable cells at 0.4 nM incubated for 168 hrs by Annexin V-FITC/PI staining based flow cytometric analysis (reference value: 94.4 %); assay type: functional; details: read-out: Activity
Z-138 [9] = experiment: Induction of apoptosis in human Z138 cells assessed as early apoptotic cells at 0.4 nM incubated for 168 hrs by Annexin V-FITC/PI staining based flow cytometric analysis (reference value: 1.68 %); assay type: functional
Z-138 [10] = experiment: Induction of apoptosis in human Z138 cells assessed as necrotic cells at 0.4 nM incubated for 168 hrs by Annexin V-FITC/PI staining based flow cytometric analysis (reference value: 3.54 %); assay type: functional
Z-138 [11] = experiment: Induction of apoptosis in human Z138 cells assessed as late apoptotic cells at 2.0 nM incubated for 168 hrs by Annexin V-FITC/PI staining based flow cytometric analysis (reference value: 0.37 %); assay type: functional
Z-138 [12] = experiment: Induction of apoptosis in human Z138 cells assessed as late apoptotic cells at 10.0 nM incubated for 168 hrs by Annexin V-FITC/PI staining based flow cytometric analysis (reference value: 0.37 %); assay type: functional
Z-138 [13] = experiment: Induction of apoptosis in human Z138 cells assessed as necrotic cells at 10.0 nM incubated for 168 hrs by Annexin V-FITC/PI staining based flow cytometric analysis (reference value: 3.54 %); assay type: functional
Z-138 [14] = experiment: Induction of apoptosis in human Z138 cells assessed as viable cells at 50.0 nM incubated for 168 hrs by Annexin V-FITC/PI staining based flow cytometric analysis (reference value: 94.4 %); assay type: functional; details: read-out: Activity
Z-138 [15] = experiment: Induction of apoptosis in human Z138 cells assessed as late apoptotic cells at 50.0 nM incubated for 168 hrs by Annexin V-FITC/PI staining based flow cytometric analysis (reference value: 0.37 %); assay type: functional
Z-138 [16] = experiment: Cell cycle arrest in human Z138 cells assessed as increase in DNA content at 0.4 nM incubated for 168 hrs by RNase A/PI staining based flow cytometric analysis relative to control; assay type: functional
Z-138 [17] = experiment: Cell cycle arrest in human Z138 cells assessed as increase in DNA content at 50.0 nM incubated for 168 hrs by RNase A/PI staining based flow cytometric analysis relative to control; assay type: functional
Z-138 [18] = experiment: Antitumor activity against human Z138 cells xenografted in female SCID.BG nude mouse assessed as tumor growth inhibition at 50 mg/kg, po administered twice a day for 21 days relative to control; assay type: functional; details: Z-138, 504 h, time 21 day, read-out: TGI
[19] = Toxicity in female SCID.BG […] mouse xenografted with human Z138 cells assessed as body weight loss at 12.5 to 50 mg/kg, po administered twice a day for 21 days; assay type: organism-based; details: in vivo, 504 h, dose 12.5-50 mg/kg, time 21 day
[20] = Toxicity in Sprague-Dawley rat assessed as body weight loss at 31.25 to 125 mg/kg, po administered once a day for 14 days; assay type: organism-based; details: in vivo, 336 h, dose 31.25-125 mg/kg, time 14 day
[21] = Toxicity in Sprague-Dawley rat assessed as morphological changes in stomach at 31.25 to 125 mg/kg, po administered once a day for 14 days by H and E staining based analysis; assay type: organism-based; details: in vivo, 336 h, dose 31.25-125 mg/kg, time 14 day
[22] = Toxicity in Sprague-Dawley rat assessed as morphological changes in bone marrow at 31.25 to 125 mg/kg, po administered once a day for 14 days by H and E staining based analysis; assay type: organism-based; details: in vivo, 336 h, dose 31.25-125 mg/kg, time 14 day
[23] = Toxicity in Sprague-Dawley rat assessed as morphological changes in thymus at 31.25 to 125 mg/kg, po administered once a day for 14 days by H and E staining based analysis; assay type: organism-based; details: in vivo, 336 h, dose 31.25-125 mg/kg, time 14 day
[24] = Toxicity in Sprague-Dawley rat assessed as structural changes in stomach at 31.25 to 125 mg/kg, po administered once a day for 14 days by H and E staining based analysis; assay type: organism-based; details: in vivo, 336 h, dose 31.25-125 mg/kg, time 14 day
[25] = Toxicity in Sprague-Dawley rat assessed as structural changes in thymus at 31.25 to 125 mg/kg, po administered once a day for 14 days by H and E staining based analysis; assay type: organism-based; details: in vivo, 336 h, dose 31.25-125 mg/kg, time 14 day
[26] = Toxicity in Sprague-Dawley rat assessed as structural changes in caecum at 31.25 to 125 mg/kg, po administered once a day for 14 days by H and E staining based analysis; assay type: organism-based; details: in vivo, 336 h, dose 31.25-125 mg/kg, time 14 day
[27] = Metabolic stability in human liver microsomes assessed as half-life at 1 uM measured upto 240 mins; assay type: ADME, Microsome
[28] = Metabolic stability in monkey liver microsomes assessed as half-life at 1 uM measured upto 240 mins; assay type: ADME, Macaca mulatta, Microsome; details: rhesus monkey
[29] = Protein binding in human plasma; assay type: ADME, cell-free; details: read-out: PPB (converted)
[30] = Protein binding in monkey plasma; assay type: ADME, cell-free, Macaca mulatta; details: rhesus monkey, read-out: PPB (converted)
Cytochrome P450 1A2 = Cytochrome P450 1A2 (Homo sapiens, UniProt P05177); experiment: Inhibition of CYP1A2 (unknown origin); assay type: ADME
Cytochrome P450 2B6 = Cytochrome P450 2B6 (Homo sapiens, UniProt P20813); experiment: Inhibition of CYP2B6 (unknown origin); assay type: ADME
Cytochrome P450 2C8 = Cytochrome P450 2C8 (Homo sapiens, UniProt P10632); experiment: Inhibition of CYP2C8 (unknown origin); assay type: ADME
Cytochrome P450 2C19 = Cytochrome P450 2C19 (Homo sapiens, UniProt P33261); experiment: Inhibition of CYP2C19 (unknown origin); assay type: ADME
Cytochrome P450 3A4 = Cytochrome P450 3A4 (Homo sapiens, UniProt P08684); experiment: Inhibition of CYP3A4 (unknown origin) using midazolam as substrate; assay type: ADME
PRMT5/MEP50 complex = PRMT5/MEP50 complex (Homo sapiens, UniProt O14744+Q9BQA1); experiment: Binding affinity to PRMT5/MEP50 (unknown origin) assessed as dissociation rate constant (koff) by SPR analysis
Z-138 [31] = experiment: Antiproliferative activity against human Z138 cells measured after 7 days by CellTiter-Glo luminescence cell viability assay; assay type: functional, cell-based; details: Z-138, 168 h

Sequence of Protein arginine N-methyltransferase 3 (O60678 whole entry): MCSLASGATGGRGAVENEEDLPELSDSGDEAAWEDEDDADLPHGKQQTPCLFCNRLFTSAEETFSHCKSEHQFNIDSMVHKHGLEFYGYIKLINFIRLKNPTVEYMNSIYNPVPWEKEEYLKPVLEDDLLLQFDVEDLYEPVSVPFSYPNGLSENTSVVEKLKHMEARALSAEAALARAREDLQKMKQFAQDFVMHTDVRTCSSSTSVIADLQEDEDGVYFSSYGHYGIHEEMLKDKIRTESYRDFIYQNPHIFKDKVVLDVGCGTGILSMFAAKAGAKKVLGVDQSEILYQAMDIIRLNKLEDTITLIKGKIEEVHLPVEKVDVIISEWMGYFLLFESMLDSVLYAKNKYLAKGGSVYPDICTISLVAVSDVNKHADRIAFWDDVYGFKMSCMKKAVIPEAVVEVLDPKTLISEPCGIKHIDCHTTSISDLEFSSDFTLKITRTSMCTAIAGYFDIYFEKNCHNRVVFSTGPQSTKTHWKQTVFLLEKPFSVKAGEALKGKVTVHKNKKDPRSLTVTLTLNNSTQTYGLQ
Sequence of Cytochrome P450 2C19 (P33261 whole entry): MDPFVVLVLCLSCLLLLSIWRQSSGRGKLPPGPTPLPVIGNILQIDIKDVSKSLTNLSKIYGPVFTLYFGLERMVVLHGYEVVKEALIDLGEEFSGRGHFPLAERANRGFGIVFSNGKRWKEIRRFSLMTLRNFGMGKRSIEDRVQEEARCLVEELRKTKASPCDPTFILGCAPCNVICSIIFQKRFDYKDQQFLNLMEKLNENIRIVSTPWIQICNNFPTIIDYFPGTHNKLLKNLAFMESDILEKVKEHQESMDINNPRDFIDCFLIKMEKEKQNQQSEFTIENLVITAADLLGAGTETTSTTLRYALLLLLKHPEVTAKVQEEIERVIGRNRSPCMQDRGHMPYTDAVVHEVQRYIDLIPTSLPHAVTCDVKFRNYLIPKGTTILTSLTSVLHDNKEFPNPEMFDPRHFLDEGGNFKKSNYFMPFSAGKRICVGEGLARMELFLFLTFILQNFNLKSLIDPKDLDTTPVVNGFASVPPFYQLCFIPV
Sequence of Cytochrome P450 1A2 (P05177 whole entry): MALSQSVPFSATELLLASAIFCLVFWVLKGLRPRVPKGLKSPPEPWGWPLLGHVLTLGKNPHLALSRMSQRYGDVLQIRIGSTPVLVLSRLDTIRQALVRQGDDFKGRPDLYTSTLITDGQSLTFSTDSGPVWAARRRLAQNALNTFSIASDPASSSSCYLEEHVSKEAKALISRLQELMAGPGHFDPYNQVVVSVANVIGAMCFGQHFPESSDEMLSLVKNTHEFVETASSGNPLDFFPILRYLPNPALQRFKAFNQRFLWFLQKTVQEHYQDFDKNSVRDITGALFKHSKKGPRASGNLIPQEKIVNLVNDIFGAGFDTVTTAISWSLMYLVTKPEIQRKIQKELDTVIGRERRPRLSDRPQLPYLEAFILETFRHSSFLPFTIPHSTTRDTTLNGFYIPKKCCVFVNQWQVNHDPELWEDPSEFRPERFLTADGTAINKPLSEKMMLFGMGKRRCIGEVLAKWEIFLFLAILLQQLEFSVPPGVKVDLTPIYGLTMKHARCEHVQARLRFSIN
Sequence of Cytochrome P450 2B6 (P20813 whole entry): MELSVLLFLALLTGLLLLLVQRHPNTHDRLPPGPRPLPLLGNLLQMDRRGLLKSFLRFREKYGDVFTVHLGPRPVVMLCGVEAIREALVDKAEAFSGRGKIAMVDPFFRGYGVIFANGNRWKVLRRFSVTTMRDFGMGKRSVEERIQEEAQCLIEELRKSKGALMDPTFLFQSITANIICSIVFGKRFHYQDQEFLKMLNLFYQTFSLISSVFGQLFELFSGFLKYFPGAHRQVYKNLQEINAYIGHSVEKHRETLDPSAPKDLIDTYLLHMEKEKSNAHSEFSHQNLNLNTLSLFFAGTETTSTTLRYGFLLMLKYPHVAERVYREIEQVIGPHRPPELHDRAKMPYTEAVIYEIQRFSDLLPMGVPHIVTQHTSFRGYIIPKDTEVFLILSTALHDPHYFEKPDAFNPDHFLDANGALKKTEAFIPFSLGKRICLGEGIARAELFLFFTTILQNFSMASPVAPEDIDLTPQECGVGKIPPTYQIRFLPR
Sequence of Cytochrome P450 3A4 (P08684 whole entry): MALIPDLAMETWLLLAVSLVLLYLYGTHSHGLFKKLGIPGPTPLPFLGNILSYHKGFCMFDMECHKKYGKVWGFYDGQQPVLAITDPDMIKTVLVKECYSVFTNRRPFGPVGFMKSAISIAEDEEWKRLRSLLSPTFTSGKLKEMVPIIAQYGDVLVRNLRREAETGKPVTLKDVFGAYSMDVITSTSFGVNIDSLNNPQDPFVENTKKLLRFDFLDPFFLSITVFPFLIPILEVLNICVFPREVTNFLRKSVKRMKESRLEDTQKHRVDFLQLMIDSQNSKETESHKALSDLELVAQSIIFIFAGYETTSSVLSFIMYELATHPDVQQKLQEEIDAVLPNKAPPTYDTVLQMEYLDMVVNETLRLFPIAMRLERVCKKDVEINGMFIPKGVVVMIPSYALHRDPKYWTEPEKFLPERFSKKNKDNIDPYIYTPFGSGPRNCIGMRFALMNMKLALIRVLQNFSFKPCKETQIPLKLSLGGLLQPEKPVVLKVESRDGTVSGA
Sequence of Cytochrome P450 2C8 (P10632 whole entry): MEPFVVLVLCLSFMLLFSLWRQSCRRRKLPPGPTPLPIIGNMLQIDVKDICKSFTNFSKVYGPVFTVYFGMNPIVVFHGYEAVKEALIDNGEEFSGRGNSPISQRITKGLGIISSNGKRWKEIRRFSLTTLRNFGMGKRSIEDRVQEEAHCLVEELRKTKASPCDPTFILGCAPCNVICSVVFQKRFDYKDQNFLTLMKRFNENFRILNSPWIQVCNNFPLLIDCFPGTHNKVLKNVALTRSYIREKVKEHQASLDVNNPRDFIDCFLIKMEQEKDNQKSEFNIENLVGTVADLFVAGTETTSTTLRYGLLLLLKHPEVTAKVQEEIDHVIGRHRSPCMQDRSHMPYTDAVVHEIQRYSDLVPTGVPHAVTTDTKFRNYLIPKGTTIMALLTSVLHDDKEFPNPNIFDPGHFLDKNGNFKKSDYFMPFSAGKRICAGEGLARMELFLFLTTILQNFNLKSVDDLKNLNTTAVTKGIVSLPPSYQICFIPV
Sequence of PRMT5/MEP50 complex (O14744 whole entry): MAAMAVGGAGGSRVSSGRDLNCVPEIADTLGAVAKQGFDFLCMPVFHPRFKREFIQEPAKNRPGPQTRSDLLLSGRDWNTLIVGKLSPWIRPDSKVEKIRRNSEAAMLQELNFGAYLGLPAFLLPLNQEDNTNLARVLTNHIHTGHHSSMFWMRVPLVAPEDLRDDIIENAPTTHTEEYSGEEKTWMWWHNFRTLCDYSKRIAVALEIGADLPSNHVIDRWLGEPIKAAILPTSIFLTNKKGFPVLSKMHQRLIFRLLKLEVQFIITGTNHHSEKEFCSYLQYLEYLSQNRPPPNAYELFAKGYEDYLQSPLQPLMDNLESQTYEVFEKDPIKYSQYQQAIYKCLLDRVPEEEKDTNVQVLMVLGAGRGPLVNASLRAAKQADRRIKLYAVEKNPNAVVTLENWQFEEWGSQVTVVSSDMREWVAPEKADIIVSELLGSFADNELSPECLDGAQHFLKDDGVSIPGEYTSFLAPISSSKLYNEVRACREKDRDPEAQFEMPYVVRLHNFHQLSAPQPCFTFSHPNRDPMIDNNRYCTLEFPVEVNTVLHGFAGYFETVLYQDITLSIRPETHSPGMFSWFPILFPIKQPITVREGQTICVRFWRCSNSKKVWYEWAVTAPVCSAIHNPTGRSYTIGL
Sequence of PRMT5/MEP50 complex (Q9BQA1 whole entry): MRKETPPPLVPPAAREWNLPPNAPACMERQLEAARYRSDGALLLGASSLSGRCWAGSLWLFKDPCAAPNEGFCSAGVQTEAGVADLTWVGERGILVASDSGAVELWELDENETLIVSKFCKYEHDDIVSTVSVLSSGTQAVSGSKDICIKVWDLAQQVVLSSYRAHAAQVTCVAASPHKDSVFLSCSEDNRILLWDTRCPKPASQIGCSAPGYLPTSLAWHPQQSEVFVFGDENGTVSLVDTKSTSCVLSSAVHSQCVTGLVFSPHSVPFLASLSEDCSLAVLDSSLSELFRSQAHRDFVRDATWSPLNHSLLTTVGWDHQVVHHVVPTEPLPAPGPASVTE

Structure (SMILES): CC(=O)N1CC2(CC(Nc3cc4c(cn3)C3(CC3)CN(C[C@H](O)CN3CCc5ccccc5C3)C4=O)C2)C1
half-life [1]: 132 min | Cmax [2]: 894 ng/mL | AUC(0-t) [3]: 1030 ng·h/mL | half-life [4]: 24 min | MRT last [5]: 30 min | IC50 [6]: > 10 µM | IC50 (NCI-H1299): 0.0556 µM | IC50 (NCI-H1975): 0.00095 µM | IC50 (Z-138 [7]): > 10 µM | viability at 0.0004 µM (Z-138 [8]): 95.3% | Activity (Z-138 [9]): 1.89% | Activity (Z-138 [10]): 2.41% | Activity (Z-138 [11]): 9.25% | Activity (Z-138 [12]): 32.4% | Activity (Z-138 [13]): 3.87% | viability at 0.05 µM (Z-138 [14]): 7.61% | Activity (Z-138 [15]): 11.4% | Activity (Z-138 [16]): 52.4% | Activity (Z-138 [17]): 71.6% | inhibition in vivo at 50 mg/kg (Z-138 [18]): 106% | Activity [19]: Non-toxic | Activity [20]: Non-toxic | Activity [21]: Non-toxic | Activity [22]: Non-toxic | Activity [23]: Non-toxic | Activity [24]: Non-toxic | Activity [25]: Non-toxic | Activity [26]: Non-toxic | half-life at 1 µM [27]: 17.5 min | half-life at 1 µM [28]: 18.2 min | fraction unbound [29]: 0.106 | fraction unbound [30]: 0.11 | IC50 (Cytochrome P450 1A2): > 50 µM | IC50 (Cytochrome P450 2B6): > 50 µM | IC50 (Cytochrome P450 2C8): > 50 µM | IC50 (Cytochrome P450 2C19): > 50 µM | IC50 (Cytochrome P450 3A4): > 50 µM | koff (PRMT5/MEP50 complex): 3.62 10^-2/s

half-life [1]: 36 min | Cmax [2]: 355 ng/mL | AUC(0-t) [3]: 404 ng·h/mL | half-life [4]: 18 min | MRT last [5]: 24 min | IC50 [6]: > 10 µM
Structure (SMILES): CC(=O)N1CCC(Nc2cc(C(=O)NC[C@H](O)CN3CCc4ccccc4C3)ncn2)CC1 [PEMRAMETOSTAT]
IC50 (Z-138 [31]): 0.0258 µM | viability at 0.0004 µM (Z-138 [8]): 95.6% | Activity (Z-138 [9]): 1.53% | Activity (Z-138 [10]): 2.52% | Activity (Z-138 [11]): 0.31% | Activity (Z-138 [12]): 1.53% | Activity (Z-138 [13]): 5.31% | viability at 0.05 µM (Z-138 [14]): 53.4% | Activity (Z-138 [15]): 7.38% | Activity (Z-138 [16]): 50.9% | Activity (Z-138 [17]): 59.2%
